Source: PMC9095466 (Nature, 2022)
Where “and” joins values, the source holds several entries; their conditions need not be identical. Identical values can stand only once. Like-named read-outs stand apart in the source and are kept apart here.

Key:
Recombinant human DESC1 = target: T1, Recombinant human DESC1 (Homo sapiens, UniProt Q9UL52); assay: Protease selectivity, Ki on recombinant protease; format: biochemical; conditions: mean ± s.d., max concentration 10 µM; read-out: Ki DESC1
T1 construct: made in house
T1 sequence (Q9UL52 1-423): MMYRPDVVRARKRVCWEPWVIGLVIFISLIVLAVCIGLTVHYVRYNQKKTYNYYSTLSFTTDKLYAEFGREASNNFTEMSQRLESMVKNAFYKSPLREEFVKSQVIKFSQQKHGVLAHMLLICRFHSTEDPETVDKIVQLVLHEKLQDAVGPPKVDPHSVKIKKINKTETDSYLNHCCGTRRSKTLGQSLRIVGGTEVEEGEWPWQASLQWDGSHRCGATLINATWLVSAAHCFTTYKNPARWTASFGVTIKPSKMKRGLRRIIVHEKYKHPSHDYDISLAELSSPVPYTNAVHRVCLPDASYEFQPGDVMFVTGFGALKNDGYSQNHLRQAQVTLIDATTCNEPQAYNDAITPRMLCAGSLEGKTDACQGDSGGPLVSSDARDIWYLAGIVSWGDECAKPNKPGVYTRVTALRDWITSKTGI

human TMPRSS2 = human TMPRSS2 (Homo sapiens, UniProt O15393); assay: cell-based; conditions: for TMPRSS2 relative activity: technical duplicates; for inhibition at 0.01 µM: Vero C1008, 10 nM compound, 24 h, vs untreated/vehicle TMPRSS2-expressing Vero E6 cells, read-out: inhibition of TMPRSS2 activity (reduction of substrate proteolysis)
Sequence of human TMPRSS2 (O15393 whole entry): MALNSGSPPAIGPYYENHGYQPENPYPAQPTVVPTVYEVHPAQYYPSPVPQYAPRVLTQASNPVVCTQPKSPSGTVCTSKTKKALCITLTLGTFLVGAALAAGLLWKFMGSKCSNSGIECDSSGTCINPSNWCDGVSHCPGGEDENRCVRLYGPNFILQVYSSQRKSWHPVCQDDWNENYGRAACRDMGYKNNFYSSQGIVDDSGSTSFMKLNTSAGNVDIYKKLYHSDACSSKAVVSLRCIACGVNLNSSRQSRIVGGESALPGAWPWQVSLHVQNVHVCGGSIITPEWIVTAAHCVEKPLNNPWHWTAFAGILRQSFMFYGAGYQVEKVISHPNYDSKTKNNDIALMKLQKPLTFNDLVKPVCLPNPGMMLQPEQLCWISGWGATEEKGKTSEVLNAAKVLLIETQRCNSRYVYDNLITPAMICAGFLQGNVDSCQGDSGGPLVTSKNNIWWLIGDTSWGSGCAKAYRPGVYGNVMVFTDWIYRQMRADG

human cathepsin L = target: T2, human cathepsin L (Homo sapiens, UniProt P07711); assay: Protease selectivity, Ki on protease; format: biochemical; conditions: mean ± s.d., max concentration 10 µM; read-out: Ki Cathepsin L
T2 construct: purchased Bio-Techne
T2 sequence (P07711 114-333): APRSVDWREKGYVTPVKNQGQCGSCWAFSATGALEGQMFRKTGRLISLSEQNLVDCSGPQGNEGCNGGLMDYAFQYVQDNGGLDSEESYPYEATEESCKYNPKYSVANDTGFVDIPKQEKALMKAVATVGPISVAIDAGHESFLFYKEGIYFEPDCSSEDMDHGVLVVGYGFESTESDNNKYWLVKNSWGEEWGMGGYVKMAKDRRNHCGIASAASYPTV

[1] = system: SARS-CoV-2 lineage B strain (VIDO); assay: microbe, parasite or virus in culture; format: cell-based; conditions: for Nucleocapsid / dsRNA: Figure 2a, two replicates; for Nucleocapsid: DMSO control about 91-94; for dsRNA: DMSO control about 93-95; for EC50 / inhibition at 0.1 µM: Severe acute respiratory syndrome coronavirus 2, Calu-3; for EC50: read-out: SARS-CoV-2 VIDO Nucleocapsid EC50 ± SE; for inhibition at 0.1 µM: read-out: inhibition of SARS-CoV-2 infection
Calu-3 cells = assay: Cytotoxicity CC50 in Calu-3 lung epithelial cells; format: cell-based, human; conditions: single replicates
[2] = Cytotoxicity CC50 in Calu-3 lung epithelial cells; format: cell-based, human; conditions: human; for viability at 24 h, 300 µM: Log [inhibitor] -3.52; for viability at 24 h, 100 µM: Log [inhibitor] -4.00; for viability at 24 h, 30 µM: Log [inhibitor] -4.52; for viability at 24 h, 10 µM: Log [inhibitor] -5.00; for viability at 24 h, 3 µM: Log [inhibitor] -5.52; for viability at 24 h, 0.3 µM: Log [inhibitor] -6.52; for viability at 24 h, 0.03 µM: Log [inhibitor] -7.52; for viability at 24 h, 0.003 µM: Log [inhibitor] -8.52
human thrombin = target: T3, human thrombin (Homo sapiens, UniProt P00734); assay: Protease selectivity, Ki on protease; format: biochemical; conditions: mean ± s.d., max concentration 10 µM; read-out: Ki Thrombin
T3 construct: purchased MilliporeSigma

[3] = target: T4, Recombinant human matriptase (Homo sapiens, UniProt Q9Y5Y6); assay: Protease selectivity, Ki on recombinant protease; format: biochemical; conditions: mean ± s.d., max concentration 10 µM; read-out: Ki Matriptase
T4 construct: made in house
T4 sequence (Q9Y5Y6 1-855): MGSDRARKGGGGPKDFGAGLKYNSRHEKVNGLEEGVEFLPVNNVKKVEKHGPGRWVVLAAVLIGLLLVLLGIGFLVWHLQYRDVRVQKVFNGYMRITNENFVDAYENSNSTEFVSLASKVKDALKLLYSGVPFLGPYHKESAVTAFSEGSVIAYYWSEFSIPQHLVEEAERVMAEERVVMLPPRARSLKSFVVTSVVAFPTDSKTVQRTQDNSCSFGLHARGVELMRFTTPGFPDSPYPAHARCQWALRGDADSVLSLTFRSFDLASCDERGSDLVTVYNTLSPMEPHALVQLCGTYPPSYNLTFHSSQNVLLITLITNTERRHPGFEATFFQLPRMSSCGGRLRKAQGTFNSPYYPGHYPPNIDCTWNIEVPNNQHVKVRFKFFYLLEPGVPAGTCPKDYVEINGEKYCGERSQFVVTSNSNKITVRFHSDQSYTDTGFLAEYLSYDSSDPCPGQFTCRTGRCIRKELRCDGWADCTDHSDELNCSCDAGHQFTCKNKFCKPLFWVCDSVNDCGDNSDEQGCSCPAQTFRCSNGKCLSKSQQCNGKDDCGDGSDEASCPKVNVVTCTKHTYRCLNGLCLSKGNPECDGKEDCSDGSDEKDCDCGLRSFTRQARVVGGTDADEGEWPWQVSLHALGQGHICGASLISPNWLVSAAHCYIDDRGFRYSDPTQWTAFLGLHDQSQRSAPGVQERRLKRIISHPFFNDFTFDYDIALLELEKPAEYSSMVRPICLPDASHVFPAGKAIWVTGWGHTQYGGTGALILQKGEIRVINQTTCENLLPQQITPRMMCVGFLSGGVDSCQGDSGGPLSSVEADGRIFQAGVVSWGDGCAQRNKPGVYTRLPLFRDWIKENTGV

Recombinant human hepsin = target: T5, Recombinant human hepsin (Homo sapiens, UniProt P05981); assay: Protease selectivity, Ki on recombinant protease; format: biochemical; conditions: mean ± s.d., max concentration 10 µM; read-out: Ki Hepsin
T5 construct: made in house
T5 sequence (P05981 whole entry): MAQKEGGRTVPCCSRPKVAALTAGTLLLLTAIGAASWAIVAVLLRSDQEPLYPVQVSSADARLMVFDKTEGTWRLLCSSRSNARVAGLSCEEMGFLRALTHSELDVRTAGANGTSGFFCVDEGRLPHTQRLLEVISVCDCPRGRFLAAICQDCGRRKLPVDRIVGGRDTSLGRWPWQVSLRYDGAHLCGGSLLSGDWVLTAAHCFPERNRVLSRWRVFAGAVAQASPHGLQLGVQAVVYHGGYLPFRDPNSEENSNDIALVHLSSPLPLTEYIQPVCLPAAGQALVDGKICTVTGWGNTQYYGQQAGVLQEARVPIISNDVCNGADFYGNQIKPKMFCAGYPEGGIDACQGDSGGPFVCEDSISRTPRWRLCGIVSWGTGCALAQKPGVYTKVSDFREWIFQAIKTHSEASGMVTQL

Recombinant human furin = target: T6, Recombinant human furin (Homo sapiens, UniProt P09958); assay: Protease selectivity, Ki on recombinant protease; format: biochemical; conditions: mean ± s.d., max concentration 10 µM; read-out: Ki Furin
T6 construct: purchased Bio-Techne
T6 sequence (P09958 108-794): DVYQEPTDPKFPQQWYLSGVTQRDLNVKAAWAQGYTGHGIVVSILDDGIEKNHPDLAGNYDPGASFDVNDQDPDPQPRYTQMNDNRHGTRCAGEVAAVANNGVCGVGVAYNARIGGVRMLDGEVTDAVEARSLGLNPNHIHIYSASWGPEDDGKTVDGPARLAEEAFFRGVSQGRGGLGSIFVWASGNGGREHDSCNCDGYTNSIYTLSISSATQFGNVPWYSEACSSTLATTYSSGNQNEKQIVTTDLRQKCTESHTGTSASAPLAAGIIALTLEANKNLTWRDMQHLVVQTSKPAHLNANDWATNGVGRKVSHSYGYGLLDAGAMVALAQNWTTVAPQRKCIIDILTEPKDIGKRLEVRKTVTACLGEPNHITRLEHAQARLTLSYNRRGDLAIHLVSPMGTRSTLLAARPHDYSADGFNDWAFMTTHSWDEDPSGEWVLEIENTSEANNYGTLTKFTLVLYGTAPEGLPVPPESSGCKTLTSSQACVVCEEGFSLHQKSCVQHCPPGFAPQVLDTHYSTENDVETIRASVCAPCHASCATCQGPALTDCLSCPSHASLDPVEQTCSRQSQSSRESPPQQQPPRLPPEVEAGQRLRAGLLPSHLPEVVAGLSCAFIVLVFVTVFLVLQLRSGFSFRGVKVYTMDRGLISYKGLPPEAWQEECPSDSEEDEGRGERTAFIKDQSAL

SARS-CoV-2 P.1 (Gamma) = assay: microbe, parasite or virus in culture; format: cell-based; conditions: Brazil
[4] = Calu-3 cells, read-out: % of Viability, Average (n=2)
[5] = Calu-3 cells, single replicates, read-out: % of Viability

N=C(N)NCCCCC(=O)N[C@@H](CCC(=O)O)C(=O)N[C@@H](Cc1ccccc1)C(=O)N[C@@H](CCCNC(=N)N)C(=O)c1nc2ccccc2s1 [Compound N-0438, (H)REFR-kbt]
Ki (Recombinant human DESC1): 31 ± 3 nM | TMPRSS2 relative activity (human TMPRSS2; 1.60E-10 M): 86.6686 and 86.7823 | TMPRSS2 relative activity (human TMPRSS2; 2.00E-08 M): 4.266 and 6.221 | TMPRSS2 relative activity (human TMPRSS2; 3.20E-11 M): 102.504 and 103.881 | TMPRSS2 relative activity (human TMPRSS2; 4.00E-09 M): 35.2539 and 37.178 | TMPRSS2 relative activity (human TMPRSS2; 8.00E-10 M): 70.1907 and 73.6892 | IC50 (human TMPRSS2; TMPRSS2, mean of independent experiments, Figure 1C, read-out: IC50 Mean): 5.17 nM | inhibition at 0.01 µM (human TMPRSS2): 84% | IC50 (human TMPRSS2; Vero E6 cells expressing human TMPRSS2, 24 h with fluorogenic substrate, read-out: TMPRSS2 IC50 ± SD): 5.2 ± 5.4 nM | Ki (human cathepsin L): > 10 µM | Nucleocapsid [1]: 4.61 and 18.8861 | dsRNA [1]: 14.5614 and 27.1131 | EC50 [1]: 35.7 ± 24.5 nM | inhibition at 0.1 µM [1]: > 88% | Figure 2b dose-response, Mean ([1]; log [C] (nM) 0.20412): 87.8313 | Figure 2b dose-response, Mean ([1]; log [C] (nM) 0.90309): 62.8653 | Figure 2b dose-response, Mean ([1]; log [C] (nM) 1.60206): 44.3084 | Figure 2b dose-response, Mean ([1]; log [C] (nM) 2.30103): 28.0955 | Figure 2b dose-response, Mean ([1]; log [C] (nM) 3): 3.627 | Figure 2b dose-response, Mean ([1]; log [C] (nM) -0.49485): 89.252 | Figure 2b dose-response, Mean ([1]; log [C] (nM) -1.19382): 94.5427 | % of Viability (Calu-3 cells; Log [inhibitor] -2.52): 12% and 39% | % of Viability (Calu-3 cells; Log [inhibitor] -4.00): 91% | % of Viability (Calu-3 cells; Log [inhibitor] -5.00): 85% | % of Viability (Calu-3 cells; Log [inhibitor] -5.52): 97% | viability at 24 h, 3000 µM ([2]; Calu-3 cells, Log [inhibitor] -2.52, read-out: % of Viability, Average (n=2)): 25.5% | viability at 24 h, 300 µM [2, 4]: 87.5% | viability at 24 h, 300 µM [2, 5]: 86% | viability at 24 h, 100 µM [2, 4]: 86% | viability at 24 h, 100 µM [2, 5]: 81% | viability at 24 h, 30 µM [2, 4]: 89% | viability at 24 h, 30 µM [2, 5]: 89% | viability at 24 h, 10 µM [2, 4]: 89% | viability at 24 h, 10 µM [2, 5]: 93% | viability at 24 h, 3 µM [2, 4]: 99% | viability at 24 h, 3 µM [2, 5]: 101% | viability at 24 h, 0.3 µM [2, 4]: 108% | viability at 24 h, 0.3 µM [2, 5]: 111% | viability at 24 h, 0.03 µM [2, 4]: 103% | viability at 24 h, 0.03 µM [2, 5]: 107% | viability at 24 h, 0.003 µM [2, 4]: 104% | viability at 24 h, 0.003 µM [2, 5]: 109% | CC50 at 24 h ([2]; Calu-3 cells, unit not given for CC50, read-out: CC50): 0.98 mM | Ki (human thrombin): > 10 µM | Ki [3]: 1.11 ± 0.09 nM | Ki (Recombinant human hepsin): 0.52 ± 0.07 nM | Ki (Recombinant human furin): > 10 µM

CS(=O)(=O)NC(CCC(N)=O)C(=O)NC(Cc1ccccc1)C(=O)NC(CCCNC(=N)N)C(=O)c1nc2ccccc2s1 (centres unmarked) [Compound N-0385, Ms-QFR-kbt]
Ki (Recombinant human DESC1): 26.6 ± 8.8 nM | TMPRSS2 activity (%) (human TMPRSS2; Figure 1B, single experiments N1-N3): 12.847% and 18.5887% and 21.0267% | inhibition at 0.01 µM (human TMPRSS2): 83% | infection, dose response Figure 3c (nucleocapsid) (SARS-CoV-2 P.1 (Gamma); log [C] (nM) 0.20412): 100 and 81.7088 and 65.1564 | infection, dose response Figure 3d (dsRNA) (SARS-CoV-2 P.1 (Gamma); log [C] (nM) 0.20412): 75.4607 and 65.7035 and 100 and 82.6067 | infection, dose response Figure 3d (dsRNA) (SARS-CoV-2 P.1 (Gamma); log [C] (nM) 3): 8.633 | infection, dose response Figure 3c (nucleocapsid) (SARS-CoV-2 P.1 (Gamma); log [C] (nM) -0.49485): 100 and 84.3433 | infection, dose response Figure 3d (dsRNA) (SARS-CoV-2 P.1 (Gamma); log [C] (nM) -0.49485): 100 and 92.9624 and 97.3601 | infection, dose response Figure 3c (nucleocapsid) (SARS-CoV-2 P.1 (Gamma); log [C] (nM) -1.19382): 91.5649 and 100 and 99.1769 | infection, dose response Figure 3d (dsRNA) (SARS-CoV-2 P.1 (Gamma); log [C] (nM) -1.19382): 98.3176 and 96.7175 and 100 and 97.435 | Ki (human cathepsin L): 6.29 ± 3.61 µM | Nucleocapsid [1]: 1.14 and 1.542 | dsRNA [1]: 2.011 and 2.808 | EC50 [1]: 2.8 ± 1.4 nM | inhibition at 0.1 µM [1]: > 99% | Figure 2b dose-response, Mean ([1]; log [C] (nM) 0.20412): 56.2346 | Figure 2b dose-response, Mean ([1]; log [C] (nM) 0.90309): 18.4653 | Figure 2b dose-response, Mean ([1]; log [C] (nM) 1.60206): 7.161 | Figure 2b dose-response, Mean ([1]; log [C] (nM) 2.30103): 5.446 | Figure 2b dose-response, Mean ([1]; log [C] (nM) 3): 1.469 | Figure 2b dose-response, Mean ([1]; log [C] (nM) -0.49485): 74.438 | Figure 2b dose-response, Mean ([1]; log [C] (nM) -1.19382): 85.6866 | CC50 at 24 h ([2]; Calu-3 lung epithelial cells, n = 2, read-out: CC50 in Calu-3 cells): 3.47 mM | Ki (Recombinant human furin): > 10 µM
